For 101 compounds, cytotoxicity results are on record in ChEMBL document CHEMBL3507680, “University of Dundee, Gates Library screen for HepG2 cell viability”.

The nature of the series: Human HepG2 cell viability assay in 384 well format. Conditions: HepG2 cells, read-out: Inhibition. It is filed as toxicity, cell-based. Further details: dose 125 nL, time 70.5 hour; concentration not given beside the values.

Take `CC(CN1CCOCC1)OC(=O)c1ccccc1Cl` (stereo unspecified): the cytotoxicity at 70.5 h is -19.2%.
With `Cc1ccc2[nH]c3c(c2c1)CN(C(=O)CN(C)CC1OCCO1)CC3`, the cytotoxicity at 70.5 h is -1.1%.
`COc1ccc(NC(=O)C2CC(=O)n3cnnc3S2)cc1` (stereo unspecified): the cytotoxicity at 70.5 h was found to be 2.23%.
`COC(=O)COn1c(SCC(=O)OC)nc2ccccc2c1=O`: the cytotoxicity at 70.5 h was -6.15%.
With `COC(=O)[C@@H](NC(=O)Nc1ccc(C(C)=O)cc1)C(C)C` the figure was 13.3%.
With `CCCc1ncc(C(=O)c2ccc(OC)cc2)n1C` the figure was 14.7%.
Consider `O=C(CN1CCN(C(=O)c2ccccc2)CC1)Nc1ccc(Br)cn1`, for which the cytotoxicity at 70.5 h is -8.87%.
Consider `COc1cccc(NC(=O)C2CC(=O)n3cnnc3S2)c1` (stereo unspecified), for which the cytotoxicity at 70.5 h turned out to be 2.31%.
In the case of `N#Cc1c2n(c3c(N)ncnc13)CCCCC2`, the cytotoxicity at 70.5 h was 16.8%.
`CCN(CC)C(=O)CSc1nnc(CCNC(=O)OC(C)(C)C)o1`: the cytotoxicity at 70.5 h is -11.3%.
Take `CCC1(CC)C(=O)NC(=O)N/C1=N/c1cccc(OC)c1`: the cytotoxicity at 70.5 h stood at 26.5%.
With `CNCc1cc(C)n(-c2ccccc2OC)c1C`, the cytotoxicity at 70.5 h was -5.13%.
For `Nc1cccnc1N1CCN(c2ccccc2)CC1`, the cytotoxicity at 70.5 h was -0.724%.
On to `O=C(O)CCn1ccc(=O)c2cc(F)ccc21`, for which the cytotoxicity at 70.5 h is -11.9%.
Next, `Cn1nc(-c2ccccc2)c(Cl)c1C(=O)O`: -25.8%; `O=C(O)c1cn(-c2ccccn2)c(=O)c2ccccc12`: -11.1%; `COc1ccc(-c2noc(C(N)CCSC)n2)cc1` (stereo unspecified): 23.9%.
On to `COc1ccc(-c2noc(C(N)CCSC)n2)cc1OC` (stereo unspecified), for which the cytotoxicity at 70.5 h is -3.12%.
As for `CCCOc1ccc(CC2=NC(C)(CO)CO2)cc1` (stereo unspecified), the cytotoxicity at 70.5 h stood at 12%.
With `COC(=O)N1CC[C@@]2(O)CCCC[C@H]2[C@@H]1c1ccc2c(c1)OCO2` the figure was -4.3%.
For `O=C1Nc2ccccc2/C1=C1\CCCCCN1`, the cytotoxicity at 70.5 h was -9.34%.
`Cc1ccc(C(=O)N2CC[C@@]3(O)CCCC[C@H]3C2)cc1`: the cytotoxicity at 70.5 h stood at 7.79%.
In the case of `CC[C@]12CN3C[C@](CC)(CN(C1)C3c1[nH]c(=O)[nH]c(=O)c1C)C2=O` (stereo partly specified), the cytotoxicity at 70.5 h amounted to 19.3%.
`CC[C@]12CN3C[C@](C)(CN(C1)C3c1[nH]c(=O)[nH]c(=O)c1C)C2=O` (stereo partly specified): the cytotoxicity at 70.5 h is -2.75%.
With `CC(C)CCN1C(=O)C2(NC(=O)c3ccccc3O2)c2ccccc21` (stereo unspecified), the cytotoxicity at 70.5 h was -15.1%.
On to `COCCN1C(=O)c2ccc(C(=O)NCCc3c[nH]cn3)cc2C1=O`, for which the cytotoxicity at 70.5 h was -5.32%.
With `CNC(=O)c1cn(C)c(-c2nc3cc(NC(C)=O)ccc3n2C)c1OC` the figure was -17.5%; with `CSCC[C@H](NC(=O)CCn1ccc2c(Cl)cccc21)C(=O)O`, -2.74%.
In the case of `COc1ccc2c(ccn2CCC(=O)NCCCC(=O)O)c1`, the cytotoxicity at 70.5 h is -10.4%.
For `Cc1cc2ccccc2n1CC(=O)N[C@@H](C)C(=O)O`, the cytotoxicity at 70.5 h is -19.5%.
Regarding `CSCC[C@H](NC(=O)CCn1cc(C(C)=O)c2ccccc21)C(=O)O`, the cytotoxicity at 70.5 h was -8.28%.
As to `COc1cccc(-c2nc(C)c(C(=O)N[C@@H](CC(C)C)C(=O)O)s2)c1`, the cytotoxicity at 70.5 h is -18.1%.
Take `Cn1ccc2c(C(=O)N3CC[C@@]4(O)CCCC[C@H]4C3)cccc21`: the cytotoxicity at 70.5 h turned out to be 0.292%.
For `COc1cccc2c1ccn2CCNC(C)=O`, the cytotoxicity at 70.5 h is -16.2%.
In the case of `COc1cc2nc(C)n(CC(=O)NCC(C)C)c(=O)c2cc1OC`, the cytotoxicity at 70.5 h was -15.9%.
Regarding `COc1cc2nc(C)n(CC(=O)NCCN(C)C)c(=O)c2cc1OC`, the cytotoxicity at 70.5 h is -17.2%.
As for `COc1ccc(C2CC(=O)Oc3cc(C)[nH]c(=O)c32)cc1O` (stereo unspecified), the cytotoxicity at 70.5 h is -19.6%.
Take `COc1cc(C2CC(=O)Oc3cc(C)[nH]c(=O)c32)ccc1OCC(=O)O` (stereo unspecified): the cytotoxicity at 70.5 h was -14.1%.
On to `O=C(NCCO)c1cc(-c2ccc3c(c2)CCO3)n[nH]1`, for which the cytotoxicity at 70.5 h stood at 18%.
On to `CN(C)CCCNC(=O)c1cc(-c2ccc3c(c2)CCO3)n[nH]1`, for which the cytotoxicity at 70.5 h is 10.7%.
Next, `CC1(CO)COC(Cc2ccc(Cl)cc2)=N1` (stereo unspecified): 21%; `CC[S+](CC)[c-]1c(=O)[nH]c(=O)n(CCc2ccc(F)cc2)c1=O`: 3.7%.
Consider `C[S+](C)[c-]1c(=O)[nH]c(=O)n(CCc2ccc(F)cc2)c1=O`, for which the cytotoxicity at 70.5 h was -2.07%.
For `CN1CCC(N(C)C(=O)Nc2ccc(Cl)cc2)CC1`, the cytotoxicity at 70.5 h is -2.16%.
For the compound `COC(=O)COn1c(OC)nc2ccccc2c1=O`, the cytotoxicity at 70.5 h was -11.7%.
With `O=C1Nc2ccccc2/C1=C1\CCCCN1` the figure was -10.3%; with `Cc1nnc(CN2CCCC2c2c(C)nn(C)c2Cl)o1` (stereo unspecified), -11.6%; with `Cc1nn(C)c(Cl)c1C1CCCN1Cc1nc(C2CC2)no1` (stereo unspecified), -7.26%.
Take `CC(C)c1nccn1C1CCCN(C(=O)c2cc(C3CC3)on2)C1` (stereo unspecified): the cytotoxicity at 70.5 h is -3.7%.
With `Cc1nccc(-c2cccc(NCC(=O)N3CCCC(C)C3)c2)n1` (stereo unspecified), the cytotoxicity at 70.5 h is -9.5%.
Turning to `Cc1noc(NC(=O)c2ccc(C#N)cc2)n1`, the cytotoxicity at 70.5 h was -7.88%.
On to `Cc1noc(NC(=O)c2ccc(Br)o2)n1`, for which the cytotoxicity at 70.5 h was -9.68%.
As to `CCc1nc(C)c(C(=O)NCCNC(=O)c2cccs2)s1`, the cytotoxicity at 70.5 h was 15.7%.
On to `Cc1ccc(C(O)CNC(=O)NCc2c(C)cc(C)[nH]c2=O)cc1` (stereo unspecified), for which the cytotoxicity at 70.5 h is -9.83%.
Regarding `Cc1cc(C)c(CNC(=O)NCC(O)c2ccc(Cl)cc2)c(=O)[nH]1` (stereo unspecified), the cytotoxicity at 70.5 h is -4.37%.
In the case of `Cc1ccc(C(=O)NCC(O)c2cccc(F)c2)c(=O)[nH]1` (stereo unspecified), the cytotoxicity at 70.5 h is -0.0981%.
Take `Cc1cc(C)c(CNC(=O)NCc2cc(F)cc(F)c2)c(=O)[nH]1`: the cytotoxicity at 70.5 h was -3.54%.
`Cc1cc(C)c(CNC(=O)NCC(O)c2ccccc2)c(=O)[nH]1` (stereo unspecified): the cytotoxicity at 70.5 h is -1.05%.
Take `COC(CNC(=O)NCc1c(C)cc(C)[nH]c1=O)c1ccccc1` (stereo unspecified): the cytotoxicity at 70.5 h was -12.2%.
Turning to `COc1ccccc1CN(C)C(=O)NCc1c(C)cc(C)[nH]c1=O`, the cytotoxicity at 70.5 h is -0.543%.
Turning to `Cc1cc(C)c(CNC(=O)N(C)Cc2cccc(C#N)c2)c(=O)[nH]1`, the cytotoxicity at 70.5 h was -1.75%.
Turning to `Cc1ccccc1-n1c(C)cc(C(=O)N2CCn3c(C)nnc3C2)c1C`, the cytotoxicity at 70.5 h is -1.44%.
With `Cc1nnc2n1CCN(C(=O)c1cc(C)n(-c3ccccc3)c1C)C2`, the cytotoxicity at 70.5 h was -4.87%.
In the case of `CCOc1ccnc(N2CCN(C(=O)c3ccc(C#N)cc3)CC2)n1`, the cytotoxicity at 70.5 h was 2.75%.
`CCOc1ccnc(N2CCN(C(=O)c3ccncc3)CC2)n1`: the cytotoxicity at 70.5 h was -9.15%.
Consider `CC(NC(=O)NCc1c(F)cccc1Cl)(C(=O)O)c1ccco1` (stereo unspecified), for which the cytotoxicity at 70.5 h was -8.24%.
As to `Cc1cnn(CC2CCCCN2C(=O)c2c(C)noc2C)c1` (stereo unspecified), the cytotoxicity at 70.5 h was -0.615%.
For the compound `Cc1ncc2c(n1)CN(CC(=O)NCCOc1ccccc1)CC2`, the cytotoxicity at 70.5 h was -11.5%.
On to `c1ccc(-n2ccc(CNCC3CCCN3c3cccnn3)n2)cc1` (stereo unspecified), for which the cytotoxicity at 70.5 h amounted to 0.819%.
Turning to `CC(C)c1n[nH]c(C2CN(C(=O)c3cnccn3)CCO2)n1` (stereo unspecified), the cytotoxicity at 70.5 h came out at 18.8%.
Take `CCc1noc(C)c1C(=O)N1CCCC1Cn1cccn1` (stereo unspecified): the cytotoxicity at 70.5 h is -3.75%.
As for `O=C(NCc1ccccc1Cn1cncn1)C1CC1`, the cytotoxicity at 70.5 h was -11.8%.
With `CC(NC(=O)CSCC#N)c1cccc(Cl)c1` (stereo unspecified), the cytotoxicity at 70.5 h was -9.11%.
Next, `O=C(CCC1CCCO1)NCc1ccccc1Cn1cncn1` (stereo unspecified): -9.42%.
`CCc1nc(C(=O)N2CCCC2)nn1-c1c(Cl)cccc1Cl`: the cytotoxicity at 70.5 h was -2.51%.
With `C=C(C)CN1CCC(NC(=O)c2scnc2C)CC1`, the cytotoxicity at 70.5 h is -5.87%.
Turning to `Cc1nn(C)c(N2CCOCC2)c1CNC(C)c1cccs1` (stereo unspecified), the cytotoxicity at 70.5 h is -1.47%.
On to `Cc1nccn1-c1cc(CNC(=O)C2CCCO2)ccn1` (stereo unspecified), for which the cytotoxicity at 70.5 h was -7.47%.
Consider `Cc1cnc(C(=O)N2CCCC(n3cccn3)C2)cn1` (stereo unspecified), for which the cytotoxicity at 70.5 h was -1.48%.
With `COc1ccccc1OCCNC(=O)CN1CCc2cncnc2C1` the figure was -5.72%; with `CC(C)(C)c1n[nH]c(C2CN(C(=O)C3=COCCC3)CCO2)n1` (stereo unspecified), -6.48%.
Turning to `Cc1nc(C(=O)N2CCOC(c3nc(C(C)C)n[nH]3)C2)c[nH]1` (stereo unspecified), the cytotoxicity at 70.5 h is -2.01%.
Take `COc1c(CNCc2ccc3c(c2)OCCO3)c(C(C)C)nn1C`: the cytotoxicity at 70.5 h was -6.06%.
For the compound `Cc1[nH]nc2ncc(C(=O)N3CCN(CCC(C)C)CC3)cc12`, the cytotoxicity at 70.5 h is 25.8%.
With `Cc1noc(C(C)N2CCN(Cc3ccco3)CC2)n1` (stereo unspecified) the figure was -11.9%; with `O=C(NCCN1CCCS1(=O)=O)c1scnc1Cl`, -24.6%; with `O=C(CCc1ccco1)Nc1cc(C(F)(F)F)c[nH]c1=O`, -8.18%.
With `CC1CCCN(CCNC(=O)c2scnc2Cl)C1` (stereo unspecified), the cytotoxicity at 70.5 h was -7.04%.
Take `CN(Cc1ccco1)C(=O)Nc1cc(C(F)(F)F)c[nH]c1=O`: the cytotoxicity at 70.5 h is -14.9%.
Take `CC(=O)N1CCCN(C(=O)CCc2c(C)nc3ccnn3c2C)CC1`: the cytotoxicity at 70.5 h was -15.3%.
`COc1ccnc(N2CCN(C(=O)CN3CCOCC3)CC2)n1`: the cytotoxicity at 70.5 h amounted to 8.59%.
For the compound `CCS(=O)(=O)N1CCN(C(=O)c2cnc3[nH]nc(C)c3c2)CC1`, the cytotoxicity at 70.5 h was -5.38%.
For `CCn1ccnc1CN1CCN(CCOc2ccccc2C#N)CC1`, the cytotoxicity at 70.5 h was -19.6%.
Regarding `O=C(COCc1ccco1)Nc1cc(C(F)(F)F)c[nH]c1=O`, the cytotoxicity at 70.5 h is 31.5%.
For the compound `Cc1nc(CN2CCc3nn(C)c(=O)cc3C2)oc1C`, the cytotoxicity at 70.5 h was -9.42%.
As to `CC(=O)Nc1nc(C(=O)N2CCCC(n3nc(C)nc3C)C2)cs1` (stereo unspecified), the cytotoxicity at 70.5 h is -10.7%.
Consider `Nc1cccnc1N1CCCCCC1`, for which the cytotoxicity at 70.5 h was 2.46%.
With `CC(CN1CCOCC1)OC(=O)c1ccccc1I` (stereo unspecified) the figure was -15.6%; with `CCC(C)[C@H](N)c1nnc(SCC(=O)Nc2ccc(Br)cc2)o1` (stereo partly specified), -13.2%.
Take `CC(C)c1nn(C)c(Cl)c1CNCc1ccc2c(c1)OCO2`: the cytotoxicity at 70.5 h was -5.25%.
Next, `COc1no[n+]([O-])c1-c1ccccc1`: 2.46%.
